# Experimental data reported in patent US10918645B2 (LIFEARC, priority 2016, dated 2021).
# Experiments:
# [1] = system: transgenic Drosophila expressing LRRK2-G2019S in dopamine (DA) neurons; test: Drosophila model climbing assay (negative geotaxis); format: in vivo; conditions: significance compared to DMSO negative control
# Text: (§1) Drosophila model was used to evaluate Examples in vivo. The GAL4/UAS system developed by Andrea Brand and Norbert Perrimon in 1993 [45] was used to generate transgenic Drosophila expressing LRRK2-G2019S in dopamine (DA) neurons. The system has two parts: the GAL4 gene, encoding the yeast transcription activator protein GAL4, and the UAS (Upstream Activation Sequence), an enhancer to which GAL4 specifically binds to activate gene transcription. This system takes advantage of the yeast GAL4 transcription factor, which binds specifically to the UAS.
# To express LRRK2-G2019S in DA neurons, the UAS-Wild Type-LRRK2 and UAS-G2019S-LRRK2 transgenes were combined with the dopa decarboxylase (ddc)-GAL4 driver. The 10 μM GW5074 was used for the positive control. The negative control group was DMSO control (all compounds were dissolved in DMSO with 1:1000 dillution). The Drosophila were maintained at 25° C. on a 12 hour light-12 hour dark cycle. GW5074 was used as positive control.
# The negative geotaxis assay was used to analyse the locomotors ability of the Drosophila. Twenty Drosophila from each vial and 4 vials for each group were performed the climbing assay weekly.
# The tested Drosophila were transferred into a vertical plastic tube (15 cm tall, 1.5 cm in diameter). After 30 min of rest at room temperature, the Drosophila were gently tapped to the bottom of the tube, the numbers of Drosophila that could climb to or above the test line within 10 seconds were counted and the percent were calculated.
# The climbing abilities were analysed based on three separate experiments for each vial and the data were analysed by GraphPad PRISM® 6.0 software.
# [2] = target: LRRK2 (phospho S935) in Drosophila brain lysates (Homo sapiens (Human), UniProt Q5S007, G2019S); test: Drosophila model kinase assays at week 6; format: in vivo; conditions: ratio of phosphate LRRK2 protein to Flag protein, significance compared to DMSO negative control
# Method: The 10 μM GW5074 was used for the positive control. The negative control group was DMSO control (all compounds were dissolved in DMSO with 1:1000 dillution). The Drosophila were maintained at 25° C. on a 12 hour light-12 hour dark cycle. GW5074 was used as positive control [47].
# The adult Drosophila heads were homogenized on ice, and the brain lysates were performed kinase reaction in kinase reaction buffer with ATP and DTT.
# Then the lysates were electrophoresed through 12% SDS-PAGE gels and transferred to PVDF membranes (Millipore). The membranes were blocked in TBST with 5% skimmed milk for 1 hour at room temperature and then incubated in anti-LRRK2 pSer935 antibody (Abcam, ab133450) and anti-Flag antibody overnight at 4° C.
# The proteins were detected with HRP-conjugated secondary antibodies and ECL detection reagents. The optical density of immunoblotting was analysed by Image J software and the ratio of phosphate LRRK2 protein compare to Flag protein were calculated and the data were analysed by GraphPad PRISM® 6.0 software.
# [3] = system: transgenic Drosophila expressing LRRK2-G2019S in dopamine (DA) neurons; test: Drosophila model survival rate; format: in vivo; conditions: significance compared to DMSO negative control
# Text: as §1
# To express LRRK2-G2019S in DA neurons, the UAS-Wild Type-LRRK2 and UAS-G2019S-LRRK2 transgenes were combined with the dopa decarboxylase (ddc)-GAL4 driver. The 10 μM GW5074 was used for the positive control. […]
# Twenty newly enclosed female Drosophila were collected and placed in a food vial. The Drosophila were moved to fresh food vials every other day at which time deaths were scored.
# Based on Drosophila′ survival curve, the 50% survival time parameter indicates the time at which half of the Drosophila remained alive and was used to compare the survival ratio between the different groups. The mean 50% survival times and the standard errors were calculated based on 4 separate experiments for each group. The data were analysed by GraphPad PRISM® 6.0 software.
# LRRK2 G2019S = LRRK2 G2019S (Homo sapiens (Human), UniProt Q5S007, G2019S); test: Adapta Kinase Assay (LRRK2_IC50 assay); format: biochemical; conditions: inhibition of LRRK2 G2019S
# Method: In Adapta™ Kinase Assay (LRRK2_IC50 assay): the Kinase Reaction Buffer contained 5× Kinase Buffer S (Life Technologies, PV5213) and 2 mM DTT (Life Technologies, P2325).
# The Adapta® universal kinase assay is a homogenous, fluorescent based immunoassay for the detection of ADP. In contrast to ATP depletion assays, the Adapta® assay is extremely sensitive to ADP formation such that a majority of the signal change occurs in the first 10-20% conversion of ATP to ADP. This makes the Adapta® universal kinase assay ideally suited for use with low activity kinases.
# Prepare a 1× solution of kinase reaction buffer from the 5× Kinase Buffer S stock (listed above) by adding 2 ml of 5× stock to 8 ml of H2O to make 10 ml of 1× kinase reaction buffer. To this, add 20 μl of 1 M DTT.
# Kinase reactions are performed in a 10 μl volume in low-volume 384-well plates. […] Other non—treated assay plates, while not tested, may also be suitable. The concentration of substrate in the assay is 100 μM, and the 1× kinase reaction buffer consists of 50 mM Tris-HCl pH8.5, 10 mM MgCl2, 1 mM EGTA, 0.01% Brij-35, and 2 mM DTT, plus any additional additives that may be required for a specific kinase. […] The plate is allowed to equilibrate at room temperature for at least 30 minutes before being read on a plate reader configured for Adapta™ TR-FRET.
# The data presented in this document were generated using a BMG LABTECH PHERAstar plate reader using the appropriate filters and instrument settings for Adapta™. The Test Compounds are screened in 1% DMSO (final) in the well. For 8 point titrations, 5-fold serial dilutions are conducted from the starting concentration.
# (§2) IC50 estimates were obtained using the software XLfit (IDBS Inc.).
# JAK2 = JAK2 (Homo sapiens (Human), UniProt O60674); test: LANCE Kinase Assay (JAK2_IC50 selectivity assay); format: biochemical
# Text: In LANCE® Kinase Assay (JAK2_IC50 selectivity assay): JAK2 (Invitrogen, Cat. No PV4288), ATP (Sigma, Cat. No. A7699-1G), DMSO (Sigma, Cat. No. D2650), DTT (Sigma, Cat. No. 43815), LANCE Ultra ULight™-JAK-1 peptide (Perkin Elmer, Cat. No. TRF0121), LANCE Eu-W1024 Anti-phosphotyrosine (PT66) (Perkin Elmer, Cat. No. AD0069), LANCE™ Detection Buffer (Perkin Elmer, Cat. No. CR97-100), Tofacitinib (PharmaBlock Sciences(Nanjing), Inc, Cat. No. PBN2011586-01); Equipments: Envision (Perkin Elmer), Bravo (Agilent); Consumables: 384 well Intermediate plate (Greiner, Cat. No. 781280), 384 well assay plate (Perkin Elmer, Cat. No. 6007299),
# The assay involves two steps, the enzymatic step and the detection step with HTRF reagents. Step 1: During the enzymatic step the substrate-biotin is incubated with the kinase of interest. ATP is added to start the reaction. Step 2: The detection reagent catches the phosphorylated substrate and the resulting TR-FRET is proportional to the phosphorylation level.
# Compound Preparation: Dissolve the test compounds into 30 mM DMSO solution and put them in nitrogen hood at room temperature for long term storage; Dilute the 30 mM compound in DMSO with 3-fold factor, total 11 concentrations; Aspirate 1 μl compound and then dilute them in 25 folds with kinase buffer. Mix well and balance 30 minutes at room temperature.
# Kinase Reaction: Transfer 2.5 μl compounds in kinase buffer (4×) into assay plate by Agilent Bravo. Spin the plate; Transfer 5 μl enzyme mixture into the assay plate by using Eppendorf electronic multi-channel pipette. Spin the plate; Incubate the assay plate for 20 minutes at room temperature (23° C.); Add 2.5 μl kinase buffer with ATP into the assay plate by using Multidrop. Spin and seal the plate; Incubate the assay plate for 90 minutes at room temperature (23° C.).
# Stop Reaction: Transfer 10 μl detection reagent (2 nM LANCE Eu-W1024 Anti-phosphotyrosine) into the assay plate by using Eppendorf electronic multi-channel pipette. Spin and seal the plate; Incubate the assay plate at room temperature (23° C.) for 60 minutes.
# Detection and Read: The excitation wavelength is 340 nm, the primary emission wavelength is 615 nm and the secondary emission wavelength is 665 nm (for Cryptate and Ulight, respectively). Read the plate with EnVision to get the readout of both wavelengths; Calculate the ratio of 665 nm/615 nm.
# as §2
# Sequence of LRRK2 (phospho S935) in Drosophila brain lysates (Q5S007 whole entry G2019S): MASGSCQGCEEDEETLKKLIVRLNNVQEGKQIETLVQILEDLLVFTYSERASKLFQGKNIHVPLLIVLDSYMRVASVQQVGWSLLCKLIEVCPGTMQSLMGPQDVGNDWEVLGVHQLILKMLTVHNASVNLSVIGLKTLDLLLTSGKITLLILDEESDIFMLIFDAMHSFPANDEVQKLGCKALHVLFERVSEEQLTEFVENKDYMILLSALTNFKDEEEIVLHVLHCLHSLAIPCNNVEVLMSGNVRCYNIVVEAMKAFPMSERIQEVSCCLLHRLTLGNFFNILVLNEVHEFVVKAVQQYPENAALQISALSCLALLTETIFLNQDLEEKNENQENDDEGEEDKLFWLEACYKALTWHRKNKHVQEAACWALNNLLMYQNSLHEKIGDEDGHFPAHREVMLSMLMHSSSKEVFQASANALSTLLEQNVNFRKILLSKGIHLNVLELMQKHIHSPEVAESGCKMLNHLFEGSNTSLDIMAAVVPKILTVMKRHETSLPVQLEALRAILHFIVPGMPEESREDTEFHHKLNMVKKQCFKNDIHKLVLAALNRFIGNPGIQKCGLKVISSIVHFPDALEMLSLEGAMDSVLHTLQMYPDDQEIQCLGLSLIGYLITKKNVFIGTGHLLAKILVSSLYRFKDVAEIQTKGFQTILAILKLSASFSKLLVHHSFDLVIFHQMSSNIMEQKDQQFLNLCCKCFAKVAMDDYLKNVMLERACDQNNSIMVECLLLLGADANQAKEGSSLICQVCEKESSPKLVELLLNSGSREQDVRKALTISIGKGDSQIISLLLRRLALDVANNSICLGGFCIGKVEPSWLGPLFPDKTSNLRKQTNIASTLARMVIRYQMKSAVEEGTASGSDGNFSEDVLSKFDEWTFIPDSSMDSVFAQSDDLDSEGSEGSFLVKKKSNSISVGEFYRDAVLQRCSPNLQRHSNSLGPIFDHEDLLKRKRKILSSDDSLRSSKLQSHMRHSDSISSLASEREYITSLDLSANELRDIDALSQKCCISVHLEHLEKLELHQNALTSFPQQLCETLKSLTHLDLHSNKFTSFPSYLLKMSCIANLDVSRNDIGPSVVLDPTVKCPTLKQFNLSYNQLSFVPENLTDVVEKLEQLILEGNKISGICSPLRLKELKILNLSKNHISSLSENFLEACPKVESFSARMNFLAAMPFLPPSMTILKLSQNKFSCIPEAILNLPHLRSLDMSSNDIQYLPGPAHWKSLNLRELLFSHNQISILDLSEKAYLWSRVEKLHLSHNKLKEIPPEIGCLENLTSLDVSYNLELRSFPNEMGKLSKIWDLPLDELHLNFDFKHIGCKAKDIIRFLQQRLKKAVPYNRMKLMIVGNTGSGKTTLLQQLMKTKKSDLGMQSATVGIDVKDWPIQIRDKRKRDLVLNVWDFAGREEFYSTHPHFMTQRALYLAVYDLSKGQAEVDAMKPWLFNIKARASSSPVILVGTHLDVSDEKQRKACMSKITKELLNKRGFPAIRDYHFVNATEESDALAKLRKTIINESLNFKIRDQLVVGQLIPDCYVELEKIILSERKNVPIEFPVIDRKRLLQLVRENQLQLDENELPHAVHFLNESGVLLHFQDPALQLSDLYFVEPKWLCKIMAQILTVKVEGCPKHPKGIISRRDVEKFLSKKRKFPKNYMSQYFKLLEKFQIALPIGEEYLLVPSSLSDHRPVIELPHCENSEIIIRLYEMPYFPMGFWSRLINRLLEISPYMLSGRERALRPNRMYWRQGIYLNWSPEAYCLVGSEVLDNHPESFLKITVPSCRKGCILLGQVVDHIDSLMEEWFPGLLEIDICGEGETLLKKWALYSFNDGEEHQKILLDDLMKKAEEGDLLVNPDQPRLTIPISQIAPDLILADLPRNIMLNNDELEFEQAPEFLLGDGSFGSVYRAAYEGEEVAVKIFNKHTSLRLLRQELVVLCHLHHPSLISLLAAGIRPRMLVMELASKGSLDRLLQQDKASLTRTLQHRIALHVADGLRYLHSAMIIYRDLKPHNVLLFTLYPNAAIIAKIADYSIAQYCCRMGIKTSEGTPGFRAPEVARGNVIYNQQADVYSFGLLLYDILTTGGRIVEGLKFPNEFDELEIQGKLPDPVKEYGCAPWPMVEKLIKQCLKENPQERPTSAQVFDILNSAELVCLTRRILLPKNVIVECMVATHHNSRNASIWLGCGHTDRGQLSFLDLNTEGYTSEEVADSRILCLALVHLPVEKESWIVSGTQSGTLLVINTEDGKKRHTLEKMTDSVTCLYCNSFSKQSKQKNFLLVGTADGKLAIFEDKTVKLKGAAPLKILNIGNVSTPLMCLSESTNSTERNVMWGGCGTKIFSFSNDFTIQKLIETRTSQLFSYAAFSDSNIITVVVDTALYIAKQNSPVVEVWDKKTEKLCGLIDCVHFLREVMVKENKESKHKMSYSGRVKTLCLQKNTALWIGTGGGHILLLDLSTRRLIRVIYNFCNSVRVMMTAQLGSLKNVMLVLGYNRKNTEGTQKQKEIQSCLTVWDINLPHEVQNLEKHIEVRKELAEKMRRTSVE
# Sequence of JAK2 (O60674 whole entry): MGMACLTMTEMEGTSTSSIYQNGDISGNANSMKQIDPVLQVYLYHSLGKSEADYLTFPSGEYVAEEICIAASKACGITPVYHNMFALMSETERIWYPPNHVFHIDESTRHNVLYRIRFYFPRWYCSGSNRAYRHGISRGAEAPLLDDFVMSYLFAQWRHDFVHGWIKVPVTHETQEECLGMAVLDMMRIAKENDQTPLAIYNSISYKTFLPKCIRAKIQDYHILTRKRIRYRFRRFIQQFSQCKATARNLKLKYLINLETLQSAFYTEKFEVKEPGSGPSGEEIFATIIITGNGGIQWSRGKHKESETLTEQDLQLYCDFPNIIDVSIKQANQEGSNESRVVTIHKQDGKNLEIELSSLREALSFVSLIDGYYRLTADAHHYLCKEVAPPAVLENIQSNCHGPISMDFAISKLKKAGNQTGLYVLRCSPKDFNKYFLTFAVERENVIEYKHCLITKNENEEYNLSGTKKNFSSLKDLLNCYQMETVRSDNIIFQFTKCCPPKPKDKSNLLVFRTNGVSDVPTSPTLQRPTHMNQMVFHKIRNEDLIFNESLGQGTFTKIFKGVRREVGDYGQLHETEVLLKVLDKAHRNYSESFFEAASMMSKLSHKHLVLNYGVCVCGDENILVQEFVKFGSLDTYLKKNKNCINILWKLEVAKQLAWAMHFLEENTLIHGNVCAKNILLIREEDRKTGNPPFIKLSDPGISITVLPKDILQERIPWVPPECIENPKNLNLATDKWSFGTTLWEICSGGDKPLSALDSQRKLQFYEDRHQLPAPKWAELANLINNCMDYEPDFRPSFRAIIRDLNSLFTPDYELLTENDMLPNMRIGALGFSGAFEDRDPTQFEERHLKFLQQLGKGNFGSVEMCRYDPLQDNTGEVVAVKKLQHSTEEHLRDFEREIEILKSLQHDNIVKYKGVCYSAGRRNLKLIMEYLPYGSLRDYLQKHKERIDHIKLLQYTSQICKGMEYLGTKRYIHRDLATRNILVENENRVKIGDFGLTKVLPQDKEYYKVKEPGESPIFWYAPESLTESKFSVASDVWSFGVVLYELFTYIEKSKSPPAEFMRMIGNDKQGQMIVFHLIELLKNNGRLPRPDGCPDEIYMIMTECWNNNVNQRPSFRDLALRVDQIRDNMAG
IC50 (LRRK2 G2019S),IC50 (JAK2),Compound,Climbing Assay 3 weeks ([1]; 3 weeks),Climbing Assay 4 weeks ([1]; 4 weeks),Climbing Assay 5 weeks ([1]; 5 weeks),Climbing Assay 6 weeks ([1]; 6 weeks),Kinase Assays [2],Survival Rate [3]
–,–,c1ccc2c(c1)CN(C1CCOCC1)c1nccc3[nH]nc-2c13 [Example 58],"* (P < 0.05, compared to DMSO negative control)","* (P < 0.05, compared to DMSO negative control)","** (P < 0.01, compared to DMSO negative control)","** (P < 0.01, compared to DMSO negative control)","* (P < 0.05, compared to DMSO negative control)","** (P < 0.01, compared to DMSO negative control)"
0.23 µM,3.1 µM,"CC(C)N1CCCc2n[nH]c3ccnc1c23 [Example 19, 6-isopropyl-6,7,8,9-tetrahydro-2H-1,2,5,6-tetraazabenzo[cd]azulene]",–,–,–,–,–,–
